{"source": "ChEMBL document CHEMBL5506029", "about": "(J Med Chem, 2024)", "key": {"[1]": {"assay": "Unbound clearance in rat plasma at iv dosed for 4 to 24 hrs by LC-MS/MS analysis", "format": "ADME, organism-based", "details": "in vivo, time 4-24 hrs"}, "[2]": {"assay": "Clearance in rat plasma at iv dosed for 4 to 24 hrs by LC-MS/MS analysis", "format": "ADME, organism-based", "details": "time 4-24 hrs"}, "[3]": {"assay": "Unbound brain-to-plasma concentration ratio in rat at iv dosed for 4 to 24 hrs by LC-MS/MS analysis", "format": "ADME, organism-based", "details": "time 4-24 hrs; for Kp uu: read-out: K(p,uu,brain)"}, "[4]": {"assay": "AUCinfinity in iv dosed dog", "format": "ADME, organism-based, Canis lupus familiaris", "details": "in vivo"}, "[5]": {"assay": "Tmax in mouse at po administration", "format": "ADME, organism-based", "details": "in vivo"}, "[6]": {"assay": "Clearance in rat at iv administration", "format": "ADME, organism-based", "details": "in vivo"}, "[7]": {"assay": "Volume of distribution at steady state in Cynomolgus monkey at iv administration", "format": "ADME, organism-based, Macaca fascicularis", "details": "in vivo, read-out: Vdss"}, "[8]": {"assay": "Tmax in po dosed dog", "format": "ADME, organism-based, Canis lupus familiaris", "details": "in vivo"}, "[9]": {"assay": "Intrinsic clearance in human liver microsomes", "format": "ADME, Microsome", "details": "read-out: CLH"}, "[10]": {"assay": "Unbound clearance in Cynomolgus monkey at iv administration", "format": "ADME, organism-based, Macaca fascicularis", "details": "in vivo"}, "[11]": {"assay": "Unbound clearance in rat at iv administration", "format": "ADME, organism-based", "details": "in vivo"}, "[12]": {"assay": "Tmax in Cynomolgus monkey at po administration", "format": "ADME, organism-based, Macaca fascicularis", "details": "in vivo"}, "[13]": {"assay": "Oral bioavailability in mouse", "format": "ADME, organism-based", "details": "in vivo"}, "[14]": {"assay": "Half life in iv dosed dog", "format": "ADME, organism-based, Canis lupus familiaris", "details": "in vivo"}, "[15]": {"assay": "Volume of distribution at steady state in iv dosed dog", "format": "ADME, organism-based, Canis lupus familiaris", "details": "in vivo, read-out: Vdss"}, "[16]": {"assay": "Oral bioavailability in rat", "format": "ADME, organism-based", "details": "in vivo"}, "[17]": {"assay": "Oral bioavailability in Cynomolgus monkey", "format": "ADME, organism-based, Macaca fascicularis", "details": "in vivo"}, "[18]": {"assay": "Unbound clearance in mouse at iv administration", "format": "ADME, organism-based", "details": "in vivo"}, "[19]": {"assay": "Half life in mouse at iv administration", "format": "ADME, organism-based", "details": "in vivo"}, "[20]": {"assay": "Oral bioavailability in dog", "format": "ADME, organism-based, Canis lupus familiaris", "details": "in vivo"}, "[21]": {"assay": "Clearance in Cynomolgus monkey at iv administration", "format": "ADME, organism-based, Macaca fascicularis", "details": "in vivo"}, "[22]": {"assay": "Half life in Cynomolgus monkey at iv administration", "format": "ADME, organism-based, Macaca fascicularis", "details": "in vivo"}, "[23]": {"assay": "AUCinfinity in Cynomolgus monkey at iv administration", "format": "ADME, organism-based, Macaca fascicularis", "details": "in vivo"}, "[24]": {"assay": "Clearance in iv dosed dog", "format": "ADME, organism-based, Canis lupus familiaris", "details": "in vivo"}, "[25]": {"assay": "Volume of distribution at steady state in rat at iv administration", "format": "ADME, organism-based", "details": "in vivo, read-out: Vdss"}, "[26]": {"assay": "Half life in rat at iv administration", "format": "ADME, organism-based", "details": "in vivo"}, "[27]": {"assay": "AUCinfinity in mouse at iv administration", "format": "ADME, organism-based", "details": "in vivo"}, "[28]": {"assay": "Intrinsic clearance in human Hepatocyte", "format": "ADME, cell-based", "details": "hepatocytes, read-out: CLH"}, "[29]": {"assay": "Unbound clearance in iv dosed dog", "format": "ADME, organism-based, Canis lupus familiaris", "details": "in vivo"}, "[30]": {"assay": "Volume of distribution at steady state in mouse at iv administration", "format": "ADME, organism-based", "details": "in vivo, read-out: Vdss"}, "[31]": {"assay": "AUCinfinity in rat at iv administration", "format": "ADME, organism-based", "details": "in vivo"}, "[32]": {"assay": "Tmax in rat at po administration", "format": "ADME, organism-based", "details": "in vivo"}}}
{"smiles": "CC(C)Oc1nc2nc(C34COC(CF)(C3)C4)cn2cc1C(=O)Nc1cccn(C2CC2)c1=O", "values": [{"measurement": "CL free", "setting": "[1]", "value": 51, "unit": "mL/min/kg"}, {"measurement": "clearance", "setting": "[2]", "value": 9.6, "unit": "mL/min/kg"}, {"measurement": "Kp uu", "setting": "[3]", "value": 0.2}]}
{"smiles": "COC[C@@]12CC[C@@](c3cn4cc(C(=O)Nc5cccn(C6CC6)c5=O)c(OC(C)C)nc4n3)(CO1)C2", "values": [{"measurement": "CL free", "setting": "[1]", "value": 281, "unit": "mL/min/kg"}, {"measurement": "clearance", "setting": "[2]", "value": 17, "unit": "mL/min/kg"}, {"measurement": "Kp uu", "setting": "[3]", "value": 0.2}]}
{"smiles": "Cc1cnc2c(NC(=O)c3cn4cc(C56COC(C)(C5)C6)nc4nc3OC(C)C)cnn2c1", "values": [{"measurement": "K(p,uu,brain)", "setting": "[3]; iv", "value": 0.3}]}
{"smiles": "CC(C)Oc1nc2nc(C34COC(C)(C3)C4)cn2cc1C(=O)Nc1cccn([C@H]2C[C@H]2C)c1=O", "values": [{"measurement": "Kp uu", "setting": "[3]", "value": 0.4}]}
{"smiles": "COC[C@@]12CC[C@@](c3cn4cc(C(=O)Nc5cccn([C@H]6C[C@H]6F)c5=O)c(OC(C)C)nc4n3)(CO1)C2", "values": [{"measurement": "CL free", "setting": "[1]", "value": 312, "unit": "mL/min/kg"}, {"measurement": "clearance", "setting": "[2]", "value": 33, "unit": "mL/min/kg"}, {"measurement": "Kp uu", "setting": "[3]", "value": 0.1}]}
{"smiles": "CC(C)Oc1nc2nc(C34COC(C)(C3)C4)cn2cc1C(=O)Nc1cccn(C2CC2)c1=O", "values": [{"measurement": "AUC(0-inf)", "setting": "[4]", "value": 1400, "unit": "ng·h/mL"}, {"measurement": "Tmax", "setting": "[5]", "value": 0.25, "unit": "h"}, {"measurement": "clearance", "setting": "[6]", "value": 14.2, "unit": "mL/min/kg"}, {"measurement": "Vd", "setting": "[7]", "value": 0.9, "unit": "L/kg"}, {"measurement": "Tmax", "setting": "[8]", "value": 0.6, "unit": "h"}, {"measurement": "CLint scaled", "setting": "[9]", "value": "< 5", "unit": "mL/min/kg"}, {"measurement": "CL free", "setting": "[10]", "value": 98, "unit": "mL/min/kg"}, {"measurement": "CL free", "setting": "[11]", "value": 171, "unit": "mL/min/kg"}, {"measurement": "Tmax", "setting": "[12]", "value": 1.2, "unit": "h"}, {"measurement": "bioavailability", "setting": "[13]", "value": 92, "unit": "%"}, {"measurement": "half-life", "setting": "[14]", "value": 1.4, "unit": "h"}, {"measurement": "Vd", "setting": "[15]", "value": 1.4, "unit": "L/kg"}, {"measurement": "bioavailability", "setting": "[16]", "value": 128, "unit": "%"}, {"measurement": "bioavailability", "setting": "[17]", "value": 61, "unit": "%"}, {"measurement": "CL free", "setting": "[18]", "value": 240, "unit": "mL/min/kg"}, {"measurement": "half-life", "setting": "[19]", "value": 1.6, "unit": "h"}, {"measurement": "bioavailability", "setting": "[20]", "value": 89, "unit": "%"}, {"measurement": "clearance", "setting": "[21]", "value": 15.1, "unit": "mL/min/kg"}, {"measurement": "half-life", "setting": "[22]", "value": 0.8, "unit": "h"}, {"measurement": "AUC(0-inf)", "setting": "[23]", "value": 1130, "unit": "ng·h/mL"}, {"measurement": "clearance", "setting": "[24]", "value": 12.7, "unit": "mL/min/kg"}, {"measurement": "Vd", "setting": "[25]", "value": 2.9, "unit": "L/kg"}, {"measurement": "half-life", "setting": "[26]", "value": 2.5, "unit": "h"}, {"measurement": "AUC(0-inf)", "setting": "[27]", "value": 1020, "unit": "ng·h/mL"}, {"measurement": "Kp uu", "setting": "[3]", "value": 0.7}, {"measurement": "CLint scaled", "setting": "[28]", "value": 5.1, "unit": "mL/min/kg"}, {"measurement": "CL free", "setting": "[29]", "value": 76, "unit": "mL/min/kg"}, {"measurement": "Vd", "setting": "[30]", "value": 1.5, "unit": "L/kg"}, {"measurement": "AUC(0-inf)", "setting": "[31]", "value": 1040, "unit": "ng·h/mL"}, {"measurement": "Tmax", "setting": "[32]", "value": 0.25, "unit": "h"}]}
{"smiles": "CC(C)Oc1nc2nc(C34COC(C3)C4)cn2cc1C(=O)Nc1cccn(C2CC2)c1=O", "values": [{"measurement": "CL free", "setting": "[1]", "value": 88, "unit": "mL/min/kg"}, {"measurement": "clearance", "setting": "[2]", "value": 8, "unit": "mL/min/kg"}, {"measurement": "Kp uu", "setting": "[3]", "value": 0.4}]}
{"smiles": "COCC12CC(c3cn4cc(C(=O)Nc5cccn(C6CC6)c5=O)c(OC(C)C)nc4n3)(CO1)C2", "values": [{"measurement": "CL free", "setting": "[1]", "value": 170, "unit": "mL/min/kg"}, {"measurement": "clearance", "setting": "[2]", "value": 20.8, "unit": "mL/min/kg"}, {"measurement": "Kp uu", "setting": "[3]", "value": 0.5}]}
{"smiles": "CC(C)Oc1nc2nc(C34COC(C)(C3)C4)cn2cc1C(=O)Nc1cccn([C@H]2C[C@H]2F)c1=O", "note": "(single isomer, unassigned)", "values": [{"measurement": "Kp uu", "setting": "[3]", "value": 0.3}]}
{"smiles": "CC(C)Oc1nc2nc(C34CCC(C)(C3)OC4)cn2cc1C(=O)Nc1cccn([C@H]2C[C@H]2F)c1=O", "note": "(single isomer, unassigned)", "values": [{"measurement": "CL free", "setting": "[1]", "value": 306, "unit": "mL/min/kg"}, {"measurement": "clearance", "setting": "[2]", "value": 12.7, "unit": "mL/min/kg"}, {"measurement": "Kp uu", "setting": "[3]", "value": 0.2}]}
{"smiles": "CC(C)Oc1nc2nc([C@@]34CC[C@@](C)(C3)OC4)cn2cc1C(=O)Nc1cccn(C2CC2)c1=O", "note": "(single isomer, unassigned)", "values": [{"measurement": "CL free", "setting": "[1]", "value": 310, "unit": "mL/min/kg"}, {"measurement": "clearance", "setting": "[2]", "value": 36, "unit": "mL/min/kg"}, {"measurement": "Kp uu", "setting": "[3]", "value": 0.3}]}
